Patent publication US20220370636A1, “NICOTINAMIDE ADENINE DINUCLEOTIDE ACTIVATOR AND USE THEREOF” (University of South Florida, priority 2021, published 2022)

Assays:
db/db mice [1] = assay: Pancreatic β cells immunostaining and Gomori aldehyde fuchsin staining in db/db mice; type: in vivo; settings: 4 weeks
Protocol: Immunostaining. Immunostaining of the pancreas was performed for the measurement of insulin secreting β cells area, as previously described. Briefly, the frozen pancreatic tissues were fixed into tissue freezing media (TFM). Pancreas were cut into 10 μm thick sections and kept at −80° C. For immunostaining, the slides were first air dried and washed with phosphate buffer saline (PBS). The sections were then fixed in 4% paraformaldehyde for 30 min and blocked with SuperBlock™ T20 (TBS) blocking buffer (Thermo scientific, MA, USA) for 30 min, at room temperature (RT). Slides were then incubated with insulin primary antibody (sc-9168, Santa Cruz, TX, USA) diluted in blocking buffer (1:200), overnight at 4° C. Slides were then washed in PBS and incubated with Alexa Fluor®488 secondary antibody (Abcam, Mass., USA) diluted in blocking buffer for 1 h at RT. Following washes, the slides were then mounted with ProLong® Gold antifade mountant containing DAPI (Molecular Probe, OR, USA). Nuclei were labelled by DAPI. The images obtained with confocal multiphoton laser scanning microscope (Olympus FV1000 MPE, Olympus Inc., USA) were quantified by using ImageJ software (NIH, USA). The cross-sectional areas of pancreas and β cells were determined from multiple sections (n=3 mice per group), separated by at least 50 μm from each section. Pancreatic β cell area was calculated by using the following formula: islet β cell area (%)=(area stained by insulin anti-body/total islets area)×100.
Gomori aldehyde fuchsin staining. The Gomori aldehyde fuchsin staining of the pancreatic β cells was performed as per previously published protocol. Briefly, the frozen pancreas was TFM embedded and cut into 6 μm thick transverse serial cryosections using Microm cryostat machine. The slides were air dried at 60° C. and dewaxed using xylene and then hydrated through decreasing concentrations of ethyl alcohol. The slides were then rinsed in cold tap water followed by a single rinse in 50% ethanol and immersed in aldehyde fuchsin (Electron Microscopy Services, PA, USA) for 1 h. The excess stain was removed by rinsing in 70% ethanol and tap water. The slides were then counter-stained with Light Green (American Master Tech Scientific, CA, USA) through immersion for 60 s and dehydrated with increasing concentration of ethanol, and cleared with xylene. The sections were then mounted with disterene phthalate xylene (DPX) mountant (Sigma-Aldrich, MO, USA). Images were obtained at ×20 magnification with the Olympus IX73 inverted microscope using CellSens Standard software (Olympus Soft Imaging Solution, USA) and quantified with ImageJ software (NIH, USA).

[2] = system: Nampt+/− and littermate WT mice; assay: Glucose tolerance test in Nampt+/- and littermate WT mice; type: in vivo; settings: vs vehicle
db/db mice [3] = assay: LC-MS/MS lipidomics of gastrocnemius muscle in db/db mice; type: in vivo
Protocol: Lipidomics. The lipidomic profiling of GAS muscle was performed using a liquid chromatography-tandem mass spectrometry (LC-MS/MS) method as described previously. Briefly, the GAS muscle samples were collected, and flash frozen in liquid nitrogen. Around 50-100 mg of the muscle tissue was homogenized using a bead-beating method, then the obtained supernatant was further cleaned and concentrated by solid phase extraction. The extracted LMs samples were dried under vacuum and stored at […] for future LC-MS/MS analysis. The dried extracts were reconstituted with 50 μL of methanol, and 10 μL was injected into LC-MS/MS to observe lipid profiles in GAS muscles. The LC-MS/MS system components were from Shimadzu Scientific Instruments Inc. (Columbia, Md., USA). All analyses and data processing were completed with the use of Shimadzu Lab Solutions V5.91 software (Shimadzu Scientific, Tokyo, Japan).

RAW264.7 cells = assay: qRT-PCR of inflammatory genes in LPS-treated RAW264.7 cells; type: cell-based; settings: LPS 1 μg/ml + P7C3 1 μM, 24 hours
Protocol: FIGS. 2A and 2B show macrophage: LPS induced inflammation and recovery via P7 markers such as NF-κb, IL-1β, IL-6. […] RAW264.7 cells was treated with LPS (1 μg/ml) and P7C3 (1 μM) for 24 hours. The isolated mRNA was subjected qRT-PCR using iScript cDNA Synthesis Kit (Bio-Rad, Cat #: 1706691) and iTaq Universal SYBR Green Supermix (Bio-Rad, Cat #: 1725121) in iCycler iQ Real Time PCR Detection System (Bio-Rad). The value of 2^-ΔΔCt was calculated and expressed as a Mean±SEM (n=6). The statistical analysis was performed using two-way ANOVA with Tukey's multiple comparisons test in GraphPad Prism 8.4.3, and p≤0.05 was considered statistically significant. […]

OC(CNc1ccccc1)Cn1c2ccc(Br)cc2c2cc(Br)ccc21 (centres unmarked) [P7C3, 3,6-Dibromo-a-[(phenylamino)methyl]-9H-carbazole-9-ethanol]
number of islet of Langerhans per tissue section (db/db mice [1]; vs db-Veh): significant increase | number of β cells per islets of Langerhans (db/db mice [1]; vs db-Veh): increased | number of β cells per tissue section (db/db mice [1]; vs db-Veh): significant increase | insulin positive β cells area per islet of Langerhans area (db/db mice [1]; vs vehicle): significant increase | GTT circulating blood glucose levels ([2]; Nampt littermate WT mice, single dose 10 mg/kg i/p): significant decrease | GTT percent AUC ([2]; Nampt littermate WT mice): significant decrease | GTT blood glucose levels ([2]; Nampt+/− mice, single dose 10 mg/kg i/p): did not show any significant effect | GTT percent AUC ([2]; Nampt+/− mice): no significant differences | anti-inflammatory LMs (DHA, HDoHE derivatives, EPA, 5-HEPE) (db/db mice [3]): lowered | pro-inflammatory LMs (arachidonic acid, 11-HETE, 15-HETE) (db/db mice [3]): significantly attenuated | 2-arachidonoyl glycerol (2-AG) levels (db/db mice [3]; vs db-Veh): significantly decreased | anandamide (AEA) levels (db/db mice [3]; vs db-Veh and WT): significantly higher | IL-1β expression (RAW264.7 cells): significantly decreased | IL-6 expression (RAW264.7 cells): decreased | IL-10 expression (RAW264.7 cells): decreased | NF-κb expression (RAW264.7 cells): significantly decreased | TNFα expression (RAW264.7 cells): significantly decreased
